This is an account of results in ChEMBL document CHEMBL3044820, “Evaluation of Benzenesulfonanilide Derivatives for the Control of Crucifers Clubroot” (1996).

Some results are limits rather than exact numbers.

Holding throughout (type): functional
Experiment [1] concerns Plasmodiophora brassicae. Description: Fungicidal activity against clubroot disease causing Plasmodiophora brassicae infested Brassica campestris under greenhouse condition assessed as disease incidence at 2 kg a.i/ha treated to soil measured after 40 to 50 days.
Experiment [2] has as its system Plasmodiophora brassicae. Description: Fungicidal activity against clubroot disease causing Plasmodiophora brassicae infested Brassica campestris under greenhouse condition assessed as disease incidence at 0.5 kg a.i/ha treated to soil measured after 40 to 50 days.
Experiment [3] has as its system Plasmodiophora brassicae. Description: Fungicidal activity against clubroot disease causing Plasmodiophora brassicae infested Brassica campestris under greenhouse condition assessed as disease incidence at 4 kg a.i/ha treated to soil measured after 40 to 50 days.

With `Cc1cc([N+](=O)[O-])ccc1NS(=O)(=O)c1cc(C(F)(F)F)ccc1Cl`, the Activity was >91% in the experiment on Plasmodiophora brassicae [1], 0% in the experiment with Plasmodiophora brassicae [2] and >91% in the experiment on Plasmodiophora brassicae [3].
Take `O=S(=O)(Nc1cc(C(F)(F)F)ccc1Cl)c1cccc(C(F)(F)F)c1`: the Activity with Plasmodiophora brassicae [1] was >91%; in the experiment on Plasmodiophora brassicae [2], 0%; in the experiment on Plasmodiophora brassicae [3], >91%.
For the compound `O=S(=O)(Nc1ccc(C(F)(F)F)cc1Cl)c1cc(C(F)(F)F)ccc1Cl`, the Activity with Plasmodiophora brassicae [1], in the experiment on Plasmodiophora brassicae [2] and in the experiment on Plasmodiophora brassicae [3] was >91% each time.
Turning to `O=[N+]([O-])c1ccc(NS(=O)(=O)c2cc(Cl)c(Cl)cc2Cl)c(Cl)c1`, the Activity in the experiment on Plasmodiophora brassicae [1] is >91%; with Plasmodiophora brassicae [2], 51%; in the experiment with Plasmodiophora brassicae [3], >91%.
Turning to `O=[N+]([O-])c1ccc(NS(=O)(=O)c2cc(Cl)ccc2Cl)c(Cl)c1`, the Activity in the experiment on Plasmodiophora brassicae [1] is >91%; in the experiment on Plasmodiophora brassicae [2] it was 26%; with Plasmodiophora brassicae [3], >91%.
Regarding `O=S(=O)(Nc1ccc(C(F)(F)F)cc1Cl)c1cccc(C(F)(F)F)c1`, the Activity in the experiment with Plasmodiophora brassicae [1], with Plasmodiophora brassicae [2] and in the experiment on Plasmodiophora brassicae [3] was >91% each time.
Take `Cc1ccc(S(=O)(=O)Nc2ccc(C(F)(F)F)cc2)cc1`: the Activity in the experiment on Plasmodiophora brassicae [1] came out at 26%; in the experiment with Plasmodiophora brassicae [2], 0%; with Plasmodiophora brassicae [3] it was 26%.
For `Cc1ccc(S(=O)(=O)Nc2ccc([N+](=O)[O-])cc2Cl)c(C)c1`, the Activity is recorded as >91% with Plasmodiophora brassicae [1], 0% in the experiment on Plasmodiophora brassicae [2] and >91% with Plasmodiophora brassicae [3].
Regarding `O=S(=O)(Nc1ccc(C(F)(F)F)cc1Cl)c1ccc(Cl)c(Cl)c1`, the Activity is >91% with Plasmodiophora brassicae [1], 51% with Plasmodiophora brassicae [2] and >91% in the experiment on Plasmodiophora brassicae [3].
On to `Cc1ccc([N+](=O)[O-])cc1S(=O)(=O)Nc1c(Cl)cc([N+](=O)[O-])cc1Cl`, for which the Activity in the experiment on Plasmodiophora brassicae [1] is >91%; in the experiment with Plasmodiophora brassicae [2], 26%; with Plasmodiophora brassicae [3], >91%.
Consider `Cc1cc([N+](=O)[O-])ccc1NS(=O)(=O)c1ccc(Cl)c(C(F)(F)F)c1`, for which the Activity with Plasmodiophora brassicae [1] is >91%; in the experiment with Plasmodiophora brassicae [2] it was 26%; in the experiment on Plasmodiophora brassicae [3], >91%.
On to `O=[N+]([O-])c1ccc(NS(=O)(=O)c2cccc(C(F)(F)F)c2)c(F)c1`, for which the Activity in the experiment on Plasmodiophora brassicae [1], in the experiment with Plasmodiophora brassicae [2] and in the experiment on Plasmodiophora brassicae [3] was >91% in each case.
Turning to `Cc1ccc(C)c(S(=O)(=O)Nc2ccc([N+](=O)[O-])cc2Cl)c1`, the Activity in the experiment on Plasmodiophora brassicae [1] is given as >91%; with Plasmodiophora brassicae [2] it was 0%; with Plasmodiophora brassicae [3], >91%.
